The NIST ThermoML archive (doi:10.1016/j.jct.2012.05.015)
Values joined by “and” are separate entries in the source; they are usually repeats but may differ in a detail not shown here. Equal values may be shown once.

Settings: Liquid, Calculated from knudsen effusion weight loss

Nc1cc(N)nc(N)n1 [2,4,6-pyrimidinetriamine]
Settings	vapor or sublimation pressure
391.14 K	7.42e-05 kPa and 7.31e-05 kPa and 7.14e-05 kPa
393.15 K	9.48e-05 kPa and 8.89e-05 kPa and 8.51e-05 kPa
395.15 K	0.00011 kPa and 0.000107 kPa and 0.0001 kPa
397.13 K	0.000131 kPa and 0.000124 kPa and 0.000141 kPa
399.13 K	0.000167 kPa and 0.000166 kPa and 0.000148 kPa
401.15 K	0.0002 kPa and 0.000188 kPa and 0.000186 kPa
403.15 K	0.000247 kPa and 0.000237 kPa and 0.000215 kPa
405.15 K	0.000292 kPa and 0.000287 kPa and 0.000258 kPa
407.15 K	0.000345 kPa and 0.000316 kPa and 0.000319 kPa
409.12 K	0.000393 kPa and 0.000407 kPa and 0.000375 kPa
411.12 K	0.000484 kPa and 0.000487 kPa and 0.000439 kPa
413.15 K	0.000593 kPa and 0.00054 kPa and 0.000536 kPa

Nc1ccnc(N)n1 [2,4-pyrimidinediamine]
Settings	vapor or sublimation pressure
335.12 K	7.78e-05 kPa and 7.75e-05 kPa and 7.72e-05 kPa
338.18 K	0.000109 kPa and 0.00011 kPa and 0.000105 kPa
341.17 K	0.00015 kPa and 0.000145 kPa and 0.000141 kPa
344.12 K	0.000208 kPa and 0.000202 kPa and 0.000212 kPa
347.17 K	0.000291 kPa and 0.000283 kPa and 0.000274 kPa
350.17 K	0.000391 kPa and 0.000378 kPa
353.12 K	0.000554 kPa and 0.000535 kPa and 0.000532 kPa
356.18 K	0.00074 kPa and 0.000736 kPa and 0.000697 kPa
359.16 K	0.000989 kPa and 0.000945 kPa and 0.000904 kPa
